Assay results taken from patent US20150322094A1, “USE OF SUBSTITUTED 2,3-DIHYDRO-1-BENZOFURAN-4-CARBOXYLIC ACIDS OR SALTS THEREOF AS ACTIVE SUBSTANCES AGAINST ABIOTIC PLANT STRESS” (Bayer CropScience AG, priority 2012, published 2015).

Columns and labels:
Assay type in all cases: in vivo
[1] = system: TRZAS (Triticum aestivum); experiment: Drought stress, spray application, greenhouse pot test; settings: average of one to three independent trials
Description: (§1) Seeds of monocotyledonous and dicotyledonous crop plants were laid out in sandy loam in wood-fiber pots, covered with soil or sand and cultivated in a greenhouse under good growth conditions. The test plants were treated at the early leaf stage (BBCH10-BBCH13). To assure uniform water supply before commencement of stress, the potted plants were supplied with water by dam irrigation prior to substance application. The inventive compounds, formulated in the form of wettable powders (WP), were sprayed onto the green parts of the plants as an aqueous suspension at an equivalent water application rate of 600 l/ha with addition of 0.2% wetting agent (e.g. agrotin). Substance application was followed immediately by stress treatment of the plants. For this purpose, the pots were transferred into plastic inserts in order to prevent them from subsequently drying out too quickly.
(§2) Drought stress was induced by gradual drying out under the following conditions:
(§3) “Day”: 14 hours with illumination at 26° C.
(§4) “Night”: 10 hours without illumination at 18° C.
(§5) The duration of the respective stress phases was guided mainly by the state of the untreated, stressed control plants and thus varied from crop to crop. It was ended (by re-irrigating and transfer to a greenhouse with good growth conditions) as soon as irreversible damage was observed on the untreated, stressed control plants. In the case of dicotyledonous crops, for example oilseed rape and soya, the duration of the drought stress phase varied between 3 and 6 days, in the case of monocotyledonous crops, for example wheat, barley or corn, between 6 and 11 days.
(§6) The end of the stress phase was followed by an approx. 5-7-day recovery phase, during which the plants were once again kept under good growth conditions in a greenhouse.
(§7) In order to rule out any influence of the effects observed by any fungicidal or insecticidal action of the test compounds, it was additionally ensured that the tests proceeded without fungal infection or insect infestation.
(§8) After the recovery phase had ended, the intensities of damage were analysed in visual comparison to untreated, unstressed controls for the same age. The intensity of damage was first recorded as a percentage (100%=plants have died, 0%=like control plants). These values were then used to calculate the efficacy of the test compounds (=percentage reduction in the intensity of damage as a result of substance application) by the following formula: […]
(§9) DVus: damage value of the untreated, stressed control
(§10) DVts: damage value of the plants treated with test compound
(§11) In each trial, 3 pots per crop and dosage were treated and evaluated; the resulting efficacies are thus averages. The values in tables A-1, A-2 and A-3 below are again averages from one to three independent trials.

BRSNS (Brassica napus) = experiment: as above; settings: evaluated after recovery phase
Description: as §1, §2, §3, §4, §5, §6, §7, §8, §9, §10, §11

ZEAMX (Zea mays) [2] = experiment: Cold stress, spray application, climate-controlled chamber test; settings: averages from one to three independent trials
Text: (§12) Seeds of monocotyledonous and dicotyledonous crop plants were laid out in sandy loam in plastic pots, covered with soil or sand and cultivated in a greenhouse under good growth conditions until the early leaf stage (BBCH12). The trial plants were then likewise treated at the early leaf stage. To assure uniform water supply before commencement of stress, the potted plants were supplied with water by dam irrigation prior to substance application. The inventive compounds, formulated in the form of wettable powders (WP), were sprayed onto the green parts of the plants as an aqueous suspension at an equivalent water application rate of 300 I/ha with addition of 0.2% wetting agent (e.g. agrotin). Substance application was followed immediately by stress treatment of the plants. For this purpose, the plants in question were transferred into a climate-controlled chamber and, after a wait period of 24 h, subjected to a cold stress profile with the following conditions: • 1) “Morning” warm-up phase from 2 to 16° C. for 5 hours • 2) “Day” at 16° C. for 6 hours • 3) “Evening” cool-down phase from 16 to 2° C. for 7 hours • 4) “Night” at 2° C. for 6 hours
(§13) Over the entire trial period, both the stressed trial plants and the control plants were supplied with the same amount of water which enabled good growth under control conditions. For this purpose, the unstressed control plants which served as a comparison were kept in a greenhouse under good growth conditions and observing the following conditions: • 1) “Day”: 14 hours with illumination at 22° C. • 2) “Night”: 10 hours without illumination at 12° C.
(§14) After a period of two weeks of the cold stress profile, the stress phase was ended, and there followed a recovery phase of about three weeks, during which the plants were once again kept in a greenhouse under good growth conditions. In order to rule out any influence of the effects observed by any fungicidal or insecticidal action of the test compounds, it was additionally ensured that the tests proceeded without fungal infection or insect infestation.
as §8, §9, §10
(§15) In each trial, 8 pots per crop and dosage were treated and evaluated; the resulting efficacies are therefore averages. The values in tables B-1 and B-2 below are again averages from one to three independent trials.

ZEAMX (Zea mays) [3] = experiment: Drought stress, spray application, greenhouse pot test; settings: average of one to three independent trials
Description: as §1, §2, §3, §4, §5, §6, §7, §8, §9, §10, §11

[4] = system: TRZAS (Triticum aestivum); experiment: Cold stress, spray application, climate-controlled chamber test; settings: averages from one to three independent trials
Text: as §12, §13, §14, §8, §9, §10, §15

Structure (SMILES) | EF (BRSNS): efficacy = percentage reduction in the intensity of damage (BRSNS (Brassica napus); dosage 2.5 g/ha) [%] | EF (TRZAS): efficacy, percentage reduction in the intensity of damage ([1]; dosage 25 g/ha) [%] | EF (ZEAMX): efficacy, percentage reduction in the intensity of damage (ZEAMX (Zea mays) [3]; dosage 25 g/ha) [%] | also measured
COC(=O)c1c(O)ccc2c1CC(c1cccc(OC)c1)O2 (centres unmarked) [I.1-3] | – | – | – | EF (TRZAS): efficacy, percentage reduction in the intensity of damage ([1]; dosage 250 g/ha): >5%
COc1ccc(C2Cc3c(ccc(O)c3C(=O)O)O2)cc1 (centres unmarked) [I.2-4] | – | – | – | EF (BRSNS): efficacy = percentage reduction in the intensity of damage (BRSNS (Brassica napus); dosage 250 g/ha): >5%
COC(=O)c1c(O)ccc2c1CC(c1ccc(OC)cc1)O2 (centres unmarked) [I.1-4, Methyl 2-(4-methoxyphenyl)-5-hydroxy-2,3-dihydro-1-benzofuran-4-carboxylate] | – | – | – | EF (ZEAMX): efficacy, percentage reduction in the intensity of damage (ZEAMX (Zea mays) [2]; dosage 25 g/ha): >5%; EF (BRSNS): efficacy = percentage reduction in the intensity of damage (BRSNS (Brassica napus); dosage 100 g/ha): >5%; EF (ZEAMX): efficacy, percentage reduction in the intensity of damage (ZEAMX (Zea mays) [3]; dosage 100 g/ha): >5%
CCOC(=O)c1c(O)ccc2c1C(C)C(c1ccc(OC)c(OC)c1)O2 (centres unmarked) [I.4-21] | >5 | – | – | –
CCOC(=O)c1c(O)ccc2c1CC(c1ccc(OC)cc1)O2 (centres unmarked) [I.4-4] | >5 | >5 | >5 | EF (TRZAS): efficacy, percentage reduction in the intensity of damage ([4]; dosage 25 g/ha): >5%; EF (ZEAMX): efficacy, percentage reduction in the intensity of damage (ZEAMX (Zea mays) [2]; dosage 6.25 g/ha): >5%
COC(=O)c1c(O)ccc2c1CC(C)(c1ccc3ccccc3c1)O2 (centres unmarked) [I.1-49] | >5 | – | – | –
COC(=O)c1c(O)ccc2c1CC(c1ccc3ccccc3c1)O2 (centres unmarked) [I.1-48] | >5 | – | – | EF (ZEAMX): efficacy, percentage reduction in the intensity of damage (ZEAMX (Zea mays) [3]; dosage 250 g/ha): >5%
COC(=O)c1c(OC(=O)C2CCC2)ccc2c1CC(c1ccc(OC)cc1)O2 (centres unmarked) [I.6-4, Methyl 5-[(cyclobutylcarbonyl)oxy]-2-(4-methoxyphenyl)-2,3-dihydro-1-benzofuran-4-carboxylate] | – | >5 | – | EF (BRSNS): efficacy = percentage reduction in the intensity of damage (BRSNS (Brassica napus); dosage 25 g/ha): >5%
COC(=O)c1c(O)ccc2c1CC(c1ccc(Oc3ccccc3)cc1)O2 (centres unmarked) [I.1-41] | >5 | – | >5 | EF (TRZAS): efficacy, percentage reduction in the intensity of damage ([4]; dosage 6.25 g/ha): >5%; EF (ZEAMX): efficacy, percentage reduction in the intensity of damage (ZEAMX (Zea mays) [2]; dosage 6.25 g/ha): >5%
COC(=O)c1c(O)ccc2c1CC(c1ccc(OC(C)=O)cc1)O2 (centres unmarked) [I.1-40] | – | >5 | >5 | EF (TRZAS): efficacy, percentage reduction in the intensity of damage ([4]; dosage 25 g/ha): >5%; EF (ZEAMX): efficacy, percentage reduction in the intensity of damage (ZEAMX (Zea mays) [2]; dosage 25 g/ha): >5%
COC(=O)c1c(O)ccc2c1CC(c1ccc(OC)c(OC)c1)O2 (centres unmarked) [I.1-12] | – | >5 | – | EF (BRSNS): efficacy = percentage reduction in the intensity of damage (BRSNS (Brassica napus); dosage 25 g/ha): >5%
COC(=O)c1c(OS(=O)(=O)C(F)(F)F)ccc2c1CC(c1ccc(OC)cc1)O2 (centres unmarked) [I.16-4] | – | – | >5 | –
COC(=O)c1c(OC(C)=O)ccc2c1CC(c1ccc(OC)cc1)O2 (centres unmarked) [I.5-4] | >5 | – | – | –
COC(=O)c1c(O)ccc2c1CC(c1ccc(OCc3ccccc3)c(OC)c1)O2 (centres unmarked) [I.1-35] | – | >5 | >5 | EF (TRZAS): efficacy, percentage reduction in the intensity of damage ([4]; dosage 25 g/ha): >5%; EF (ZEAMX): efficacy, percentage reduction in the intensity of damage (ZEAMX (Zea mays) [2]; dosage 25 g/ha): >5%; EF (BRSNS): efficacy = percentage reduction in the intensity of damage (BRSNS (Brassica napus); dosage 25 g/ha): >5%
COC(=O)c1c(O)ccc2c1CC(C)(c1ccccc1)O2 (centres unmarked) [I.1-16] | >5 | – | – | –
COC(=O)c1c(O)ccc2c1CC(c1ccc(OC(C)(C)C)cc1)O2 (centres unmarked) [I.1-32] | – | >5 | >5 | EF (BRSNS): efficacy = percentage reduction in the intensity of damage (BRSNS (Brassica napus); dosage 25 g/ha): >5%
COC(=O)c1c(O)ccc2c1C(C)C(c1ccc(OC)c(OC)c1)O2 (centres unmarked) [I.1-21, Methyl 2-(3,4-dimethoxyphenyl)-5-hydroxy-3-methyl-2,3-dihydro-1-benzofuran-4-carboxylate] | – | – | – | EF (BRSNS): efficacy = percentage reduction in the intensity of damage (BRSNS (Brassica napus); dosage 25 g/ha): >5%
COC(=O)c1c(O)ccc2c1CC(C)(c1ccc(C)cc1)O2 (centres unmarked) [I.1-44] | >5 | – | >5 | –
COC(=O)c1c(O)ccc2c1C(C)C(c1ccc(OC)cc1)O2 (centres unmarked) [I.1-20] | >5 | – | – | –
